How the values were obtained:
hEAG2 channel [1] = target: T1, hEAG2 channel (Homo sapiens, UniProt Q8NCM2); assay: Magnesium dependence of hEAG2 activation, two-electrode voltage clamp in Xenopus oocytes; format: cell-based
T1 construct: expressed in transfected cells; host or cells: Xenopus oocytes (stage V-VI), injected with synthetic RNA
T1 sequence (Q8NCM2 1-988): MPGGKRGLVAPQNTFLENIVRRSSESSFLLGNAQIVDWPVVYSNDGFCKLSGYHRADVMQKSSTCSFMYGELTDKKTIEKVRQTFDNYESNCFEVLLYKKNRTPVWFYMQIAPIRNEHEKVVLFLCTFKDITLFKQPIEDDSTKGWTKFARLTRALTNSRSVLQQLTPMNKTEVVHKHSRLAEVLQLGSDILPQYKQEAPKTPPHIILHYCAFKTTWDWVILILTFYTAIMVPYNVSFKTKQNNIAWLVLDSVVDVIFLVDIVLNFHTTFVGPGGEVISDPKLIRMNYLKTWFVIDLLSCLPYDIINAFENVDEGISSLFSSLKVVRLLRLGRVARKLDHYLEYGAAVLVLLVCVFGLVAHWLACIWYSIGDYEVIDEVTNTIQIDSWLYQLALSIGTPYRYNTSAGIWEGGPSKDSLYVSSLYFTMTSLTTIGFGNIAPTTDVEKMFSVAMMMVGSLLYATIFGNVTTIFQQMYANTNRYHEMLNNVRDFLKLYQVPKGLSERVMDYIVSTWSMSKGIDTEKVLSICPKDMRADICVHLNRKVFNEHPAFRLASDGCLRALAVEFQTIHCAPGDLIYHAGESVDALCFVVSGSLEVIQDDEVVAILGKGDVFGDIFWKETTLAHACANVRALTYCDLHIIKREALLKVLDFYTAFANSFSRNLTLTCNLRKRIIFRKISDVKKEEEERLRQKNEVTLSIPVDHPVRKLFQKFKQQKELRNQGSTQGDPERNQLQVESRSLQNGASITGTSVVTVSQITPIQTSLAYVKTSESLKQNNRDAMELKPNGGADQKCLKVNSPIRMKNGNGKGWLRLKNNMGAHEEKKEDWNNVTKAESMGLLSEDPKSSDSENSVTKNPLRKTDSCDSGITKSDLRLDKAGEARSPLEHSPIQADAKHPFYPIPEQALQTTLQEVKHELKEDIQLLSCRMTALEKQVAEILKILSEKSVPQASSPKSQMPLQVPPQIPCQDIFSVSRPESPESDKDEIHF
Description: (§1) For Xenopus oocyte expression, the cDNA was cloned into a suitable vector containing the translation initiation sequences and the polyadenylation sequence of Xenopus b-globin. This optimizes the expression in oocytes. The template was prepared by linearization of the construct, and RNA was synthesized using the T7 promotor. The synthetic RNA was injected into stage V-VI oocytes using standard techniques (approximately 50 ng/oocyte). The currents expressed were then measured 48-96 hours after the injection using two-electrode voltage clamp.
The depencence on the holding potential of the time constant of activation was determined using a conditioning potential between −150 and −60 mV during 5 s prior to the test pulse. The time required to achieve 80% of the maximal amplitude in the test pulse was then plotted against the conditioned potential, and fitted with a Boltzmann distribution. Extracellular magnesium is known to slow down the activation of EAG1. We determined the magnesium dependence of hEAG2 using the protocol descibed above in the presence of different external magnesium concentrations. The value of Vhalf obtained from the fit was plotted against the magnesium concentration, giving a semimaximal effect of extracellular magnesium at 80 μM (FIG. 7).

hEAG2 channel [2] = assay: Modulation of hEAG2 current during progesterone-induced G2-M progression in Xenopus oocytes; format: cell-based, human; conditions: oocytes treated with 20 μg/ml progesterone while recording; homogenous at all voltages tested
Description: as §1
The modulation of hEAG2 during cell cycle was determined using the natural cell cycle arrest of oocytes in the G2 stage of the first meiotic division. The progression of the cycle through the G2-M boundary is triggered by progesterone. We have treated the oocytes with 20 μg/ml progesterone while recording the hEAG2 currents. […] Importantly, the reduction was homogenous at all voltages tested (as opposite to what happens with EAG1).

| EC50 (hEAG2 channel [1]; hEAG2 in Xenopus oocytes, conditioning potential -150 to -60 mV for 5 s before test pulse, extracellular magnesium, read-out: apparent EC50 for the effect of magnesium (Vhalf of activation time versus Mg^2+ concentration)) | slowing of activation in 2 mM Mg^2+ versus 200 μM Mg^2+ (hEAG2 channel [1]; prepulse potential -60 mV, 2 mM versus 200 μM Mg^2+) | SMILES | effect on hEAG2 current amplitude (hEAG2 channel [2]) |
| --- | --- | --- | --- |
| 80 µM | three times slower | [Mg+2] [magnesium] | – |
| – | – | CC(=O)[C@H]1CC[C@H]2[C@@H]3CCC4=CC(=O)CC[C@]4(C)[C@H]3CC[C@]12C [progesterone] | reduction of the current with time |
